Experimental data taken from paper PMC10805311, “Pseudomonas aeruginosa two-component system CprRS regulates HigBA expression and bacterial cytotoxicity in response to LL-37 stress” (PLOS Pathogens, 2024).

Key:
[1] = biological target: full-length CprS (CprSFL); experiment: Microscale thermophoresis (MST), full-length CprS; format: binding, P. aeruginosa; settings: 100 nM His-tag labelled CprSFL, 16 doubling dilutions from 500 μM peptide, PBST buffer, 25°C 30 min, Monolith NT.115, repeated three times, read-out: Kd (CprSFL + LL-37)
Experimental: (§1) The E. coli BL21 (DE3) strains harboring pET22b-cprS and pET22b-cprR were cultured at 37°C in LB medium and suppled with 0.4 mM IPTG as the OD600 reached to 0.8. The cultures were incubated at 16°C for an additional 14 h and the cells were collected and resuspended in buffer A (20 mM tris-HCl (pH 8.0), 150 mM NaCl). The cells were lysed by ultrasound and centrifuged at 15, 000 rpm for 20 min at 4°C. Then the supernatant was applied to Ni-agarose resins and eluted with buffer containing 300 mM imidazole. As for full-length CprS, the supernatant needed to be extracted by 2% ELUGENT Detergent and flow 0.02% DDM for elution. The target proteins were further purified via AKTA purifier using buffer A and concentrated to 12 mg/mL.
(§2) The 100 nM CprS with His-tag was labeled with Monolith His-Tag Labelling Kit RED-tris-NTA 2nd Generation Kit and the cationic peptides used in this work were diluted with PBST buffer gradient from 0.5 mM [34]. The proteins and cationic peptide dilutions were mixed and incubated at 25°C for 30 min and detected on a Monolith NT.115 instrument. The data were analyzed by NanoTemper Analysis 1.2.20 software.

[2] = biological target: CprS sensor domain (CprSSD, residues 28–163); experiment: Microscale thermophoresis (MST), CprS sensor domain; format: binding, P. aeruginosa; settings: 100 nM His-tag labelled CprSSD (residues 28–163), 16 doubling dilutions from 500 μM peptide, PBST buffer, 25°C 30 min, Monolith NT.115, repeated three times, read-out: Kd (CprSSD + LL-37)
Experimental: as §1, §2

[3] = tested on: cprS; experiment: qRT-PCR, cprS transcription; format: cell-based, P. aeruginosa; settings: oprL as normalizer
Experimental: (§3) Overnight bacterial cultures were subcultured in fresh LB medium to OD600 0.8 and the cells were collected by using Trizol. The cDNA was synthesized by using PrimeScript RT reagent Kit. 2 × SYBR qPCR Master Mix was used to perform qPCR assays. The reaction step was 2 × SYBR qPCR Master Mix (Without ROX) 10 μL, upstream Primer (10 μM) 0.4 μL, downstream Primer (10 μM) 0.4 μL, template cDNA 1 μg and ddH2O up to 20 μL. The qPCR procedure was set as: stage 1 (95°C 30 s, repeat once), stage 2 (95°C 10 s, 60°C 30 s, repeat for 40 times) and stage 3 (95°C 15 s, 60°C 1 min, 95°C 15 s, repeat 1 time). The oprL gene was used as a normalizer. The same method was used for mammalian cells, and 18 sRNA served as a normalizer.

[4] = tested on: cprR; experiment: qRT-PCR, cprR transcription; format: cell-based, P. aeruginosa; settings: oprL as normalizer
Experimental: as §3

[5] = tested on: arnBCADTEF operon; experiment: Expression of arnBCADTEF operon; format: cell-based, P. aeruginosa
Experimental: as §3

[6] = tested on: pscDEFG operon; experiment: Expression of pscDEFG operon; format: cell-based, P. aeruginosa
Experimental: as §3

[7] = tested on: higB promoter; experiment: β-Galactosidase reporter, higB promoter in P. aeruginosa; format: cell-based
[8] = tested on: higB; experiment: qPCR, higB mRNA; format: cell-based, P. aeruginosa
Experimental: as §3

[9] = tested on: higA; experiment: Expression of higA; format: cell-based, P. aeruginosa; settings: WT and ΔcprR or ΔcprS mutants
Experimental: as §3

[10] = tested on: exsA and effectors exoS, exoT, and exoU; experiment: Expression of T3SS genes exsA, exoS, exoT, exoU; format: cell-based, P. aeruginosa; settings: combined mutations of CprRS components and higB gene
Experimental: as §3

[11] = tested on: Raw264.7 macrophages; experiment: LDH release cytotoxicity assay of infected macrophages; format: cell-based; settings: MOI of 10, LL-37-treated WT P. aeruginosa
Experimental: The Raw264.7 cells were infected with suspended bacteria at a multiplicity of infection (MOI) of 10 in antibiotic-free DMEM medium. Following incubation, the supernatant was collected and the presence of LDH was measured using the LDH cytotoxicity assay kit. The baseline level of LDH release (0% LDH release) was determined using DMEM medium. Cells treated with LDH release agent C0017-1 were used as a positive control for total release (100% LDH release). The percentage of cytotoxicity was calculated according to the instructions provided by the manufacturer.

[12] = tested on: RAW264.7 macrophages (TNF-α, IL-1β, IL-8, IL-12); experiment: Pro-inflammatory cytokine levels in infected macrophages; format: cell-based; settings: 18s RNA normalizer
Experimental: as §3

[13] = tested on: P. aeruginosa ΔcprS; experiment: Label-free quantitative proteomics of ΔcprS before and after LL-37; format: cell-based; settings: PscE, PscH, PscJ, ExoT, PcrV, PcrH, PhzA2, PhzB2, PhzF1, FilF, PigA, HsbA; before vs after LL-37
Experimental: Protein was collected, reduced, and alkylated from WT, ΔcprS, ΔcprR, ΔcprSΔhigB, and ΔcprSΔhigB strains as reported. The total purified peptides were solubilized in 20 μL of 0.1% formic acid (FA, v/v) and the concentration was measured according to BCA assay.
About 2 μg samples were analyzed by orbitrap Fusion Lumos MS coupled online to an EASY-nLC 1200 system with a data-independent acquisition mode (DIA). The mobile phase used for the liquid chromatography consisted of buffer A (0.1% FA) and buffer B (80% acetonitrile, 0.1% FA). The peptides were separated using a 160-min nonlinear gradient consisting of 4–35% buffer B for 85 min, 35–100% buffer B for 60 min and 100% buffer B for 15 min at a flow rate of 300 nL min^−1. The acquired DIA data were analyzed by DIA-NN software against the protein database of P. aeruginosa PA14. Data processing was conducted using the software Perseus. Student’s t-test was used to assess the significance of differential expression of proteins (DEPs) between two groups. Proteins that have significance level of P < 0.05 and fold change >1.5 or <–1.5 were considered as DEPs.

[14] = tested on: CarSR system; settings: Vibrio cholerae; cited from earlier work
From the text: (§4) In the field of microbiology and immunology, the interaction between host antimicrobial peptides and pathogenic bacteria has been a subject of extensive research. The success of bacterial infections depends on a delicate balance of signals exchanged between microbes and hosts. Cationic antimicrobial peptides, including defensins such as α-defensins, β-defensins, and cathelicidin LL-37, are crucial components of innate host defense against bacterial infections. Numerous studies have shown that LL-37 acts as a shield between the host and the external environment, preventing bact ...

[15] = tested on: virulence sensor kinase CovS; settings: group A streptococcus; cited from earlier work
From the text: as §4

[16] = tested on: CprRS as well as ParRS system; settings: cited from earlier work
From the text: Pseudomonas aeruginosa is a notorious opportunistic pathogen known for its ability to evade host immune defenses, particularly in resisting antimicrobial peptides (AMPs). […] One notable feature is the abundance and diversity of two-component systems (TCS) in P. aeruginosa, which play a crucial role in regulating its response to host and environmental stimuli, including ...

Substance: LL-37
- Kd [1]: 1.41 µM
- Kd [2]: 5.34 µM
- increase in cprS transcription compared to control without LL-37 [3]: 2.5 fold
- increase in cprR transcription compared to control without LL-37 [4]: 2.2 fold
- expression of arnBCADTEF operon under LL-37 ([5]; WT strain): markedly induced
- expression of arnBCADTEF operon under LL-37 ([5]; ΔcprR and ΔcprS mutants): this induction was not observed
- expression of pscDEFG operon under LL-37 ([6]; WT strain): notably induced
- expression of pscDEFG operon under LL-37 ([6]; mutants): no such induction was observed
- induction of higB promoter by LL-37 ([7]; WT): significant positive induction activity on higB promoter
- induction of higB promoter by LL-37 ([7]; ΔcprR and ΔcprS mutants): markedly reduced
- increase in higB mRNA levels upon LL-37 treatment ([8]; WT strain): 8.79 fold
- increase in higB mRNA levels upon LL-37 treatment ([8]; ΔcprR mutant): 2.12 fold
- increase in higB mRNA levels upon LL-37 treatment ([8]; ΔcprS mutant): 2.74 fold
- effect of LL-37 stimulation on expression of higA [9]: limited effects on the expression of higA
- upregulation of T3SS in response to LL-37 stimulation [10]: greatly attenuated
- cytotoxicity of LL-37-treated WT strains compared to untreated group [11]: increased cytotoxicity
- effect of LL-37 pretreatment on inhibition of pro-inflammatory cytokines ([12]; macrophages infected with WT strain pretreated with LL-37): enhanced the ability of the WT strain to effectively inhibit the activation of pro-inflammatory cytokines
- effect of LL-37 pretreatment on inhibition of pro-inflammatory cytokines ([12]; macrophages infected with ΔcprS and ΔcprR strains): largely absent
- expression of virulence proteins in ΔcprS upon stimulation with LL-37 [13]: significant decrease in the expression of several proteins directly involved in virulence processes
- sensing by CarSR [14]: sense human enteric α-defensin 5 and LL-37 to promote bacterial pathogenicity
- activation of CovS [15]: activated by LL-37

Substance: dynorphin
- stimulation of CprRS as well as ParRS by dynorphin [16]: increased virulence factor production and adaptive resistance
